The values below come from US20090246145A1, “Imaging Correlates of Neurogenesis With MRI” (priority 2005, published 2009).

For data set [1] the following is noted: in vivo. The source says:
Three scout scans are first acquired to position the subsequent T2 weighted images along the standard anatomical orientations in a reproducible manner. T2 weighted axial images are acquired with multislice fast spin echo (FSE) sequence using TR/TEeff=[…]/80 ms, rapid acquisition with relaxation enhancement (RARE) factor=16, FOV=26 mm, acquisition matrix=256×256, slice thickness 0.6 mm, slice gap=0.1 mm and NEX 28. The in-plane resolution is 100 μm. This sequence is repeated 4 times, for a total imaging time of 60 minutes. The first 15 minutes correspond to pre-gadolinium image, after this time period a delay of 1-2 minutes precede the ip gadolinium injection while the mouse is being imaged. The injection lasts 30 seconds. All images are acquired utilizing the same dynamic range, so there is no risk of rescale.
An intravascular contrast agent is required to generate a CBV map of the brain. Different contrast agents have been used for CBV mapping in rodents. Most studies to date have relied on intravenous injections for contrast delivery. Because IV delivery is often problematic in rodents, associated with frequent morbidity and even occasional mortality, it is not ideally suited for longitudinal studies imaging rodents repeatedly over time. […]

The conditions of data set [2]: gas anesthesia during MRI, cited from earlier work.
Data set [3] has as its system adult hippocampal neural progenitor cells. The settings on record: in vivo; mediated at least in part by NeuroD (Hao 2004; Hsieh 2004); cited from earlier work.

Like-named read-outs stand apart in the source and are kept apart here.

Consider `CNC(=O)CN(CCN(CCN(CC(=O)[O-])CC(=O)NC)CC(=O)[O-])CC(=O)[O-].[Gd+3]` [gadolinium, gadodiamide], for which, in data set [1], the “IP dose above which gadolinium has toxic effects (mainly transient unsteady gait, possibly vertigo)” value was “Above 10 mMol”. As to `FC(F)OC(Cl)C(F)(F)F` (stereo not shown) [isoflurane], the “Cerebral hemodynamic change produced by anesthetic” value in data set [2] is “none or minimal cerebral hemodynamic changes”; in data set [2] (listed as Isofluorane), “minimal cerebral hemodynamic change”.

As for `CCCC(CCC)C(=O)O` [VPA, 2-propylpentanoic acid], the “Induction of adult hippocampal neural progenitor cells to differentiate into neurons” value in data set [3] is listed as “induce adult hippocampal neural progenitor cells to differentiate predominantly into neurons”.
